This passage reports mutagenic call results from PubChem BioAssay AID1259407 (Chemical Carcinogenesis Research Information System (CCRIS), 2018).

Each structure is given as a SMILES string. Active and inactive are the calls of the source. The rule behind the calls is not given here.

The series concerns CCRIS mutagenicity, Ames/micronucleus/aberration tests. The series can be described thus: CCRIS mutagenicity studies.
The mark [1] stands for this setting: Test System: AMES SALMONELLA TYPHIMURIUM, Strain/Indicator: TA98, Metabolic Activation: NONE, Method: PREINCUBATION
The mark [2] stands for this setting: Test System: AMES SALMONELLA TYPHIMURIUM, Strain/Indicator: TA100, Metabolic Activation: NONE, Method: PREINCUBATION
Where [3] appears, read: Test System: AMES SALMONELLA TYPHIMURIUM, Strain/Indicator: TA1537, Metabolic Activation: NONE, Method: PREINCUBATION
[4] abbreviates: Test System: AMES SALMONELLA TYPHIMURIUM, Strain/Indicator: TA100, Metabolic Activation: RAT, LIVER, S-9, AROCLOR 1254, Method: STANDARD PLATE.
The mark [5] stands for this setting: Test System: AMES SALMONELLA TYPHIMURIUM, Strain/Indicator: TA98, Metabolic Activation: NONE, Method: STANDARD PLATE.
Setting [6] is: Test System: AMES SALMONELLA TYPHIMURIUM, Strain/Indicator: TA98, Metabolic Activation: RAT, LIVER, S-9, AROCLOR 1254, Method: STANDARD PLATE.
Setting [7] is: Test System: AMES SALMONELLA TYPHIMURIUM, Strain/Indicator: TA100, Metabolic Activation: NONE, Method: STANDARD PLATE.
Setting [8] is: Test System: AMES SALMONELLA TYPHIMURIUM, Strain/Indicator: TA1535, Metabolic Activation: NONE, Method: STANDARD PLATE.

As to `Clc1cc(Cl)c(Cl)c(Cl)c1Cl`, the mutagenic call is, setting by setting: (Test System: AMES SALMONELLA TYPHIMURIUM, Strain/Indicator: TA98, Metabolic Activation: HAMSTER, LIVER, S-9, AROCLOR 1254, Method: PREINCUBATION) “inactive; negative”; under setting [1], “inactive; negative”; (Test System: AMES SALMONELLA TYPHIMURIUM, Strain/Indicator: TA98, Metabolic Activation: RAT, LIVER, S-9, AROCLOR 1254, Method: PREINCUBATION) “inactive; negative”; (Test System: AMES SALMONELLA TYPHIMURIUM, Strain/Indicator: TA100, Metabolic Activation: HAMSTER, LIVER, S-9, AROCLOR 1254, Method: PREINCUBATION) “inactive; negative”; under setting [2], “inactive; negative”; (Test System: AMES SALMONELLA TYPHIMURIUM, Strain/Indicator: TA100, Metabolic Activation: RAT, LIVER, S-9, AROCLOR 1254, Method: PREINCUBATION) “inactive; negative”. The mutagenic call reads like this: (Test System: AMES SALMONELLA TYPHIMURIUM, Strain/Indicator: TA1535, Metabolic Activation: HAMSTER, LIVER, S-9, AROCLOR 1254, Method: PREINCUBATION) “inactive; negative”; (Test System: AMES SALMONELLA TYPHIMURIUM, Strain/Indicator: TA1535, Metabolic Activation: NONE, Method: PREINCUBATION) “inactive; negative”; (Test System: AMES SALMONELLA TYPHIMURIUM, Strain/Indicator: TA1535, Metabolic Activation: RAT, LIVER, S-9, AROCLOR 1254, Method: PREINCUBATION) “inactive; negative”; (Test System: AMES SALMONELLA TYPHIMURIUM, Strain/Indicator: TA1537, Metabolic Activation: HAMSTER, LIVER, S-9, AROCLOR 1254, Method: PREINCUBATION) “inactive; negative”; under setting [3], “inactive; negative”; (Test System: AMES SALMONELLA TYPHIMURIUM, Strain/Indicator: TA1537, Metabolic Activation: RAT, LIVER, S-9, AROCLOR 1254, Method: PREINCUBATION) “inactive; negative”.
On to `c1cc2c3c(c1)ccc1cccc(c13)C2`, for which the mutagenic call by setting is: (Test System: AMES SALMONELLA TYPHIMURIUM, Strain/Indicator: TA98, Metabolic Activation: HAMSTER, LIVER, S-9, AROCLOR 1254 (30%), Method: PREINCUBATION) “active; positive”; under setting [1], “inactive; negative”; (Test System: AMES SALMONELLA TYPHIMURIUM, Strain/Indicator: TA98, Metabolic Activation: RAT, LIVER, S-9, AROCLOR 1254 (30%), Method: PREINCUBATION) “inactive; negative”; (Test System: AMES SALMONELLA TYPHIMURIUM, Strain/Indicator: TA100, Metabolic Activation: HAMSTER, LIVER, S-9, AROCLOR 1254 (30%), Method: PREINCUBATION) “active; positive”; under setting [2], “inactive; negative”; (Test System: AMES SALMONELLA TYPHIMURIUM, Strain/Indicator: TA100, Metabolic Activation: RAT, LIVER, S-9, AROCLOR 1254 (30%), Method: PREINCUBATION) “active; positive”. Also, under setting [4], the mutagenic call was “inactive; negative”.
As to `COC(=O)Nc1nc2ccc(OS(=O)(=O)c3ccc(F)cc3)cc2[nH]1`, the mutagenic call was “inactive; negative” under setting [5]; “inactive; negative” under setting [6]; “inactive; negative” under setting [7]; “inactive; negative” under setting [4]; “inactive; negative” under setting [8]; “inactive; negative” (Test System: AMES SALMONELLA TYPHIMURIUM, Strain/Indicator: TA1535, Metabolic Activation: RAT, LIVER, S-9, AROCLOR 1254, Method: STANDARD PLATE). Also, the mutagenic call (Test System: AMES SALMONELLA TYPHIMURIUM, Strain/Indicator: TA1538, Metabolic Activation: NONE, Method: STANDARD PLATE) is “inactive; negative”; the mutagenic call (Test System: AMES SALMONELLA TYPHIMURIUM, Strain/Indicator: TA1538, Metabolic Activation: RAT, LIVER, S-9, AROCLOR 1254, Method: STANDARD PLATE) is “inactive; negative”; the mutagenic call (Test System: E. COLI, Strain/Indicator: WP2, Metabolic Activation: NONE, Method: STANDARD PLATE) is “inactive; negative”; the mutagenic call (Test System: E. COLI, Strain/Indicator: WP2, Metabolic Activation: RAT, LIVER, S-9, AROCLOR 1254, Method: STANDARD PLATE) was “inactive; negative”; the mutagenic call (Test System: E. COLI, Strain/Indicator: WP2 UVRA (PKM101), Metabolic Activation: NONE, Method: STANDARD PLATE) was “inactive; negative”; the mutagenic call (Test System: E. COLI, Strain/Indicator: WP2 UVRA (PKM101), Metabolic Activation: RAT, LIVER, S-9, AROCLOR 1254, Method: STANDARD PLATE) was “inactive; negative”. Also, the mutagenic call by setting is: (Test System: E. COLI, Strain/Indicator: WP2 UVRA, Metabolic Activation: NONE, Method: STANDARD PLATE) “inactive; negative”; (Test System: E. COLI, Strain/Indicator: WP2 UVRA, Metabolic Activation: RAT, LIVER, S-9, AROCLOR 1254, Method: STANDARD PLATE) “inactive; negative”.
On to `S=C1NCCN1`, for which the mutagenic call is “inactive; negative” (Test System: AMES SALMONELLA TYPHIMURIUM, Strain/Indicator: TA98, Metabolic Activation: HAMSTER, LIVER, S-9, AROCLOR 1254 (10%), Method: PREINCUBATION); “inactive; negative” under setting [1]; “inactive; negative” under setting [5]; “inactive; negative” (Test System: AMES SALMONELLA TYPHIMURIUM, Strain/Indicator: TA98, Metabolic Activation: RAT, LIVER, S-9, AROCLOR 1254 (10%), Method: PREINCUBATION); “inactive; negative” under setting [6]; “inactive; negative” (Test System: AMES SALMONELLA TYPHIMURIUM, Strain/Indicator: TA100, Metabolic Activation: HAMSTER, LIVER, S-9, AROCLOR 1254 (10%), Method: PREINCUBATION). For the same molecule, the mutagenic call reads like this: under setting [2], “inactive; negative”; under setting [7], “inactive; negative”; (Test System: AMES SALMONELLA TYPHIMURIUM, Strain/Indicator: TA100, Metabolic Activation: RAT, LIVER, S-9, AROCLOR 1254 (10%), Method: PREINCUBATION) “inactive; negative”; under setting [4], “inactive; negative”; (Test System: AMES SALMONELLA TYPHIMURIUM, Strain/Indicator: TA102, Metabolic Activation: NONE, Method: STANDARD PLATE) “inactive; negative”; (Test System: AMES SALMONELLA TYPHIMURIUM, Strain/Indicator: TA102, Metabolic Activation: RAT, LIVER, S-9, AROCLOR 1254, Method: STANDARD PLATE) “inactive; negative”. The mutagenic call was “inactive; negative” (Test System: AMES SALMONELLA TYPHIMURIUM, Strain/Indicator: TA104, Metabolic Activation: NONE, Method: STANDARD PLATE); “inactive; negative” (Test System: AMES SALMONELLA TYPHIMURIUM, Strain/Indicator: TA104, Metabolic Activation: RAT, LIVER, S-9, AROCLOR 1254, Method: STANDARD PLATE); “active; positive” under setting [8]; “active; positive” (Test System: AMES SALMONELLA TYPHIMURIUM, Strain/Indicator: TA1535, Metabolic Activation: S-9 MIX, Method: STANDARD PLATE); “inactive; negative” (Test System: AMES SALMONELLA TYPHIMURIUM, Strain/Indicator: TA1537, Metabolic Activation: HAMSTER, LIVER, S-9, AROCLOR 1254 (10%), Method: PREINCUBATION); “inactive; negative” under setting [3]. The mutagenic call (Test System: AMES SALMONELLA TYPHIMURIUM, Strain/Indicator: TA1537, Metabolic Activation: RAT, LIVER, S-9, AROCLOR 1254 (10%), Method: PREINCUBATION) is “inactive; negative”; the mutagenic call (Test System: MOUSE LYMPHOMA, Strain/Indicator: L5178Y (TK+/TK-), Metabolic Activation: NONE, Method: SUSPENSION/PLATE) is “inactive; negative”; the mutagenic call (Test System: MOUSE LYMPHOMA, Strain/Indicator: L5178Y (TK+/TK-), Metabolic Activation: RAT, LIVER, S-9, AROCLOR 1254, Method: SUSPENSION/PLATE) was “active; positive”.
